Measurements taken from patent US9693997B2, “Antiviral compounds” (priority 2013, dated 2017).
Where two headings read alike, the source gives them in different places.

Tests used:
Experiment in all cases: microbe, parasite or virus in culture
[1] = tested on: Pseudotyped HCV GT1b particles (HCVpp), entry into Huh7-high CD81 cells; assay type: cell-based, HCV GT1b Con1 strain
[2] = tested on: Pseudotyped HCV GT1a particles (HCVpp), entry into Huh7-high CD81 cells; assay type: cell-based, HCV GT1a H77 strain; conditions: Hepatitis C virus, 72 h, read-out: HCVpp GT-1a (EC50, μM)
[3] = tested on: pseudotyped VSV G particles (VSVpp) in Huh7-high CD81 cells; assay type: cell-based, vesicular stomatitis virus
[4] = Hepatitis C virus, GT1B, 72 h, read-out: HCVpp GT-1b (EC50, μM)
[5] = Vesicular stomatitis virus, 72 h, read-out: VSVpp (EC50, μM)

With `CC(C)S(=O)(=O)c1ccc(-c2c(Cl)cc(Nc3n[nH]c(N)n3)cc2C(F)(F)F)cc1` [Compound 181, N3-(2-chloro-4′-(isopropylsulfonyl)-6-(trifluoromethyl)biphenyl-4-yl)-1H-1,2,4-triazole-3,5-diamine] the EC50 [1, 4] was 0.059 µM and the EC50 [2] was 0.021 µM.
For `CC(C)(C)NS(=O)(=O)c1ccc(-c2c(Cl)cc(Nc3n[nH]c(N)n3)cc2C(F)(F)F)cc1OC(F)(F)F` [Compound 217, 4′-(5-Amino-1H-[1,2,4]triazol-3-ylamino)-6′-chloro-3-trifluoromethoxy-2′-trifluoromethylbiphenyl-4-sulfonic acid tert-butylamide], the EC50 [3, 5] was 7.5 µM and the EC50 [2] was 0.003 µM.
`CC(C)(C)OC(=O)N1CCCC1CCOc1ccc(-c2c(Cl)cc(Nc3n[nH]c(N)n3)cc2Cl)cc1` (stereo not shown) [Compound 266, 2-{2-[4′-(5-Amino-1H-[1,2,4]triazol-3-ylamino)-2′,6′-dichloro-biphenyl-4-yloxy]-ethyl}-pyrrolidine-1-carboxylic acid tert-butyl ester] gave an EC50 [1, 4] of 0.103 µM and an EC50 [3, 5] of over 10 µM.
Work on `CC(C)(C)OC(=O)N1CCC[C@@H]1COc1ccc(-c2c(Cl)cc(Nc3n[nH]c(N)n3)cc2C(F)(F)F)cc1` [Compound 267, (R)-2-[4′-(5-Amino-1H-[1,2,4]triazol-3-ylamino)-2′-chloro-6′-trifluoromethyl-biphenyl-4-yloxymethyl]-pyrrolidine-1-carboxylic acid tert-butyl ester] yielded an EC50 [1, 4] of 0.048 µM and an EC50 [3, 5] of 9.62 µM.
For `CC(C)(C)OC(=O)N1CCC(Oc2ccc(-c3c(Cl)cc(Nc4n[nH]c(N)n4)cc3Cl)cc2)CC1` [Compound 268, 4-[4′-(5-Amino-1H-[1,2,4]triazol-3-ylamino)-2′,6′-dichloro-biphenyl-4-yloxy]-piperidine-1-carboxylic acid tert-butyl ester], the EC50 [1, 4] was 0.17 µM and the EC50 [3, 5] was over 10 µM.
`CN(C)CCOc1ccc(-c2c(Cl)cc(Nc3n[nH]c(N)n3)cc2Cl)cc1` [Compound 269, N*3*-[2,6-Dichloro-4′-(2-dimethylamino-ethoxy)-biphenyl-4-yl]-1H-[1,2,4]triazole-3,5-diamine] was tested, and the EC50 [1, 4] was 0.122 µM and the EC50 [3, 5] was 6.09 µM.
With `Nc1nc(Nc2cc(Cl)c(-c3ccc(OC[C@@H]4CCCN4)cc3)c(C(F)(F)F)c2)n[nH]1` [Compound 270, N*3*-[6-Chloro-4′-((S)-1-pyrrolidin-2-ylmethoxy)-2-trifluoromethyl-biphenyl-4-yl]-1H-[1,2,4]triazole-3,5-diamine] the EC50 [1, 4] was 0.117 µM and the EC50 [3, 5] was 33.3 µM.
`Nc1nc(Nc2cc(Cl)c(-c3ccc(O[C@H]4CCNC4)cc3)c(Cl)c2)n[nH]1` [Compound 271, N*3*-[2,6-Dichloro-4′-((S)-pyrrolidin-3-yloxy)-biphenyl-4-yl]-1H-[1,2,4]triazole-3,5-diamine] was tested, and the EC50 [1, 4] was 0.12 µM and the EC50 [3, 5] was 4.39 µM.
`Nc1nc(Nc2cc(Cl)c(-c3ccc(OC[C@H]4CCCN4)cc3)c(Cl)c2)n[nH]1` [Compound 272, N*3*-[2,6-Dichloro-4′-((R)-1-pyrrolidin-2-ylmethoxy)-biphenyl-4-yl]-1H-[1,2,4]triazole-3,5-diamine] was tested, and the EC50 [1, 4] was 0.147 µM and the EC50 [3, 5] was 4.49 µM.
With `CC(C)(C)OC(=O)N1CC[C@H](Oc2ccc(-c3c(Cl)cc(Nc4n[nH]c(N)n4)cc3Cl)cc2)C1` [Compound 273, (S)-3-[4′-(5-Amino-1H-[1,2,4]triazol-3-ylamino)-2′,6′-dichloro-biphenyl-4-yloxy]-pyrrolidine-1-carboxylic acid tert-butyl ester] the EC50 [1, 4] was 0.28 µM and the EC50 [3, 5] was over 10 µM.
Work on `CC1(C)OCC(COc2ccc(-c3c(Cl)cc(Nc4n[nH]c(N)n4)cc3Cl)cc2)O1` (stereo not shown) [Compound 274, N*3*-[2,6-Dichloro-4′-(2,2-dimethyl-[1,3]dioxolan-4-ylmethoxy)-biphenyl-4-yl]-1H-[1,2,4]triazole-3,5-diamine] yielded an EC50 [1, 4] of 0.121 µM and an EC50 [3, 5] of 34.1 µM.
With `CC(C)(C)OC(=O)N1CCC[C@@H]1COc1ccc(-c2c(Cl)cc(Nc3n[nH]c(N)n3)cc2Cl)cc1` [Compound 275, (R)-2-[4′-(5-Amino-1H-[1,2,4]triazol-3-ylamino)-2′,6′-dichloro-biphenyl-4-yloxymethyl]-pyrrolidine-1-carboxylic acid tert-butyl ester] the EC50 [1, 4] was 0.285 µM and the EC50 [3, 5] was over 10 µM.
`CC(C)(C)OC(=O)COc1ccc(-c2c(Cl)cc(Nc3n[nH]c(N)n3)cc2Cl)cc1` [Compound 276, [4′-(5-Amino-1H-[1,2,4]triazol-3-ylamino)-2′,6′-dichloro-biphenyl-4-yloxy]-acetic acid tert-butyl ester] gave an EC50 [1, 4] of 0.168 µM and an EC50 [3, 5] of over 10 µM.
`CC(C)(C)OC(=O)N1CCC[C@H]1COc1ccc(-c2c(Cl)cc(Nc3n[nH]c(N)n3)cc2C(F)(F)F)cc1` [Compound 277, (S)-2-[4′-(5-Amino-1H-[1,2,4]triazol-3-ylamino)-2′-chloro-6′-trifluoromethyl-biphenyl-4-yloxymethyl]-pyrrolidine-1-carboxylic acid tert-butyl ester] was tested, and the EC50 [1, 4] was 0.312 µM and the EC50 [3, 5] was 27.9 µM.
`COCCOc1ccc(-c2c(Cl)cc(Nc3n[nH]c(N)n3)cc2Cl)cc1` [Compound 278, N*3*-[2,6-Dichloro-4′-(2-methoxy-ethoxy)-biphenyl-4-yl]-1H-[1,2,4]triazole-3,5-diamine] gave an EC50 [1, 4] of 0.264 µM and an EC50 [3, 5] of 5.31 µM.
For `CC(C)(C)OC(=O)N1CCC[C@H]1COc1ccc(-c2c(Cl)cc(Nc3n[nH]c(N)n3)cc2Cl)cc1` [Compound 280, (S)-2-[4′-(5-Amino-1H-[1,2,4]triazol-3-ylamino)-2′,6′-dichloro-biphenyl-4-yloxymethyl]-pyrrolidine-1-carboxylic acid tert-butyl ester], the EC50 [1, 4] was 0.401 µM and the EC50 [3, 5] was over 10 µM.
In the case of `Nc1nc(Nc2cc(Cl)c(-c3ccc(OCCN4CCOCC4)cc3)c(Cl)c2)n[nH]1` [Compound 281, N*3*-[2,6-Dichloro-4′-(2-morpholin-4-yl-ethoxy)-biphenyl-4-yl]-1H-[1,2,4]triazole-3,5-diamine], the EC50 [1, 4] is reported as 0.244 µM and the EC50 [3, 5] is reported as 23.4 µM.
`Nc1nc(Nc2cc(Cl)c(-c3ccc(OCC(O)CO)cc3)c(Cl)c2)n[nH]1` (stereo not shown) [Compound 282, 3-[4′-(5-Amino-1H-[1,2,4]triazol-3-ylamino)-2′,6′-dichloro-biphenyl-4-yloxy]-propane-1,2-diol-diamine] was tested, and the EC50 [1, 4] was 0.213 µM and the EC50 [3, 5] was 39.7 µM.
Compound `Nc1nc(Nc2cc(Cl)c(-c3ccc(OCCCN4CCOCC4)cc3)c(Cl)c2)n[nH]1` [Compound 283, N*3*-[2,6-Dichloro-4′-(3-morpholin-4-yl-propoxy)-biphenyl-4-yl]-1H-[1,2,4]triazole-3,5-diamine] has an EC50 [1, 4] of 0.523 µM and an EC50 [3, 5] of over 10 µM.
With `Nc1nc(Nc2cc(Cl)c(-c3ccc(OCc4ccccn4)cc3)c(Cl)c2)n[nH]1` [Compound 284, N*3*-[2,6-Dichloro-4′-(pyridin-2-ylmethoxy)-biphenyl-4-yl]-1H-[1,2,4]triazole-3,5-diamine] the EC50 [1, 4] was 0.576 µM and the EC50 [3, 5] was over 10 µM.
In the case of `Nc1nc(Nc2cc(Cl)c(-c3ccc(OCC(=O)O)cc3)c(Cl)c2)n[nH]1` [Compound 285, [4′-(5-Amino-1H-[1,2,4]triazol-3-ylamino)-2′,6′-dichloro-biphenyl-4-yloxy]-acetic acid], the EC50 [1, 4] is reported as 4.97 µM and the EC50 [3, 5] is reported as over 10 µM.
For `CS(=O)(=O)c1ccc(-c2ccc(Nc3n[nH]c(N)n3)cc2S(F)(F)(F)(F)F)cc1` [Compound 288, N*3*-(4′-Methanesulfonyl-2-pentafluorosulfur-biphenyl-4-yl)-1H-[1,2,4]triazole-3,5-diamine], the EC50 [1, 4] was 1.23 µM and the EC50 [3, 5] was 8.93 µM.
Work on `CS(=O)(=O)Nc1cccc(-c2c(Cl)cc(Nc3n[nH]c(N)n3)cc2C(F)(F)F)c1` [Compound 290, N-(4′-(5-amino-1H-1,2,4-triazol-3-ylamino)-2′-chloro-6′-(trifluoromethyl)biphenyl-3-yl)methanesulfonamide] yielded an EC50 [1, 4] of 0.149 µM and an EC50 [3, 5] of 14.4 µM.
`CNC(=O)c1ccc(-c2c(Cl)cc(Nc3n[nH]c(N)n3)cc2C(F)(F)F)cc1F` [Compound 291, 4′-(5-amino-1H-1,2,4-triazol-3-ylamino)-2′-chloro-3-fluoro-N-methyl-6′-(trifluoromethyl)biphenyl-4-carboxamide] gave an EC50 [1, 4] of 0.325 µM and an EC50 [3, 5] of 21.5 µM.
Work on `CNC(=O)c1cc(-c2c(Cl)cc(Nc3n[nH]c(N)n3)cc2C(F)(F)F)ccc1F` [Compound 292, 4′-(5-amino-1H-1,2,4-triazol-3-ylamino)-2′-chloro-4-fluoro-N-methyl-6′-(trifluoromethyl)biphenyl-3-carboxamide] yielded an EC50 [1, 4] of 0.647 µM and an EC50 [3, 5] of 29.2 µM.
In the case of `Nc1nc(Nc2cc(Cl)c(-c3ccc(C(=O)NCCO)c(F)c3)c(C(F)(F)F)c2)n[nH]1` [Compound 293, 4′-(5-amino-1H-1,2,4-triazol-3-ylamino)-2′-chloro-3-fluoro-N-(2-hydroxyethyl)-6′-(trifluoromethyl)biphenyl-4-carboxamide], the EC50 [1, 4] is reported as 0.139 µM and the EC50 [3, 5] is reported as 15.7 µM.
Work on `Nc1nc(Nc2cc(Cl)c(-c3ccc(F)c(C(=O)NCCO)c3)c(C(F)(F)F)c2)n[nH]1` [Compound 294, 4′-(5-amino-1H-1,2,4-triazol-3-ylamino)-2′-chloro-4-fluoro-N-(2-hydroxyethyl)-6′-(trifluoromethyl)biphenyl-3-carboxamide] yielded an EC50 [1, 4] of 0.544 µM and an EC50 [3, 5] of 38.3 µM.
`Nc1nc(Nc2cc(Cl)c(-c3ccc(S(=O)(=O)NC4COC4)cc3)c(C(F)(F)F)c2)n[nH]1` [Compound 295, 4′-(5-amino-1H-1,2,4-triazol-3-ylamino)-2′-chloro-N-(oxetan-3-yl)-6′-(trifluoromethyl)biphenyl-4-sulfonamide] gave an EC50 [1, 4] of 0.022 µM and an EC50 [3, 5] of 10 µM.
In the case of “[4′-(5-amino-1H-[1,2,4]triazol-3-ylamino)-2′-chloro-6′-trifluoromethyl-biphenyl-4-yl]-carbamic acid propyl ester [Compound 238]”, the EC50 ([1]; read-out: HCVpp GT-1b (EC50)) is reported as 0.078 µM and the EC50 ([3]; read-out: VSVpp (EC50)) is reported as 24.9 µM.
